In BindingDB's records for doi:10.1016/j.bmcl.2007.06.085 (Merck, 2007):

Biological target: Substance-P receptor (Homo sapiens, UniProt P25103)
Assay: Displacement of [3H]SP from human NK1 receptor expressed in CHO cells

Substance-P receptor, sequence (P25103 whole entry): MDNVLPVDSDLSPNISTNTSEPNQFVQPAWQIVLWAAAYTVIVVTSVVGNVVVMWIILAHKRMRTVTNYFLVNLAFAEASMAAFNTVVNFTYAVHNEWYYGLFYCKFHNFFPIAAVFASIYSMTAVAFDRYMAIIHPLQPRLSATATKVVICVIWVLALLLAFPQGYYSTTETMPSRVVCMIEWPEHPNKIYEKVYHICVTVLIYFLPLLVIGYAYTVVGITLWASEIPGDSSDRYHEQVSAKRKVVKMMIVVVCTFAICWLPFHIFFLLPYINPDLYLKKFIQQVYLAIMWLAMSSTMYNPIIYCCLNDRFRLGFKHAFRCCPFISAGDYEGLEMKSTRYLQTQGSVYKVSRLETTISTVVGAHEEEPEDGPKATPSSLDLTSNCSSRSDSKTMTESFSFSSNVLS

- IC50: 0.3 nM
SMILES: C[C@@H](O[C@@H]1CN(C2CC(=O)C(=O)C2)C[C@H]1c1ccc(F)cc1)c1cc(C(F)(F)F)cc(C(F)(F)F)c1 [3-((3S,4R)-3-((R)-1-(3,5-bis(trifluoromethyl)phenyl)ethoxy)-4-(4-fluorophenyl)pyrrolidin-1-yl)-5-hydroxycyclopent-2-enone]
